Our source for the melting point values is a melting point compilation (Tetko et al.; mined from patent text by program, amines drawn as free bases though some values may be those of a salt).

For the compound `CC(C)c1cccc(C(C)C)c1NC(=O)Nc1nnn(CCCCCCCCCCCCO)n1`, the melting point – broadly, the temperature, or range, at which the solid turns liquid – was 80 to 90 °C.

Take `O=C1NC[C@@H]2CCCC[C@@H]12` (relative stereo): the melting point fell in the range of 85 to 88 °C.

Compound `CCCc1c(OCCCCCc2ccc3cc(O)c(O)cc3c2)ccc(C(=O)O)c1O` came in with a melting point of 165 to 167 °C.

`CC(C)C[C@H](NC(=O)OCc1ccccc1)C(=O)N[C@@H](Cc1ccccc1)C(=O)CSCc1ccccn1` registered a melting point of 82 to 87 °C.

For `COc1ccc2c(c1OC)CCC1=C2CCC(=O)N1`, the melting point stood at 231 °C.

On to `COc1ccc(C(CCCCCCC(=O)O)=NOCc2ccc(OCc3nc(-c4ccccc4)oc3C)cc2)cc1`, for which the melting point was in the range of 69 to 70 °C.

Regarding `O=C(CCC12CCC(=O)N1C(=O)CC2)OCc1ccccc1Cl`, the melting point is 126 to 128 °C.

`CCCCCCCCCCCCCCCCCCSCC(CO)C(C)C` (configuration not stated) gave a melting point of 29 °C.

The compound `COC(=O)COc1ccc(CC(C)=O)cc1` came in with a melting point of 63 °C.

`N#CC1=C(C2CCCCC2)Nc2n[nH]cc2C1c1cccc(C#N)c1Br` (configuration not stated) displayed a melting point of 193 °C.

Regarding `COc1cc(OC)c2c(=O)n(CCCN3CCCC3)c(-c3cc(C)c(OCCCN4CCCC4)c(C)c3)nc2c1`, the melting point was 109 to 111 °C.

The compound `COc1cccc(C(=O)N(CC=O)c2ccccc2OC)c1` had a melting point of 77 to 81 °C.

In the case of `C=Cn1cc(C(=O)OCC)c(=O)c2cc(F)c(Cl)nc21`, the melting point fell in the range of 150 to 151 °C.

`CCOC(=O)c1cnc2ccc(F)cc2c1O` showed a melting point greater than 260 °C.

In the case of `Cc1c(-c2ccccc2)on(CC(O)CCl)c1=O` (configuration not stated), the melting point lay within 82 to 83 °C.

`O=C(O)C1=Cc2cc(OCc3ccccc3)c(OCc3ccccc3)cc2CC1`: the melting point is 173 to 176 °C.

In the case of `CN1C(=O)C(C(=O)Nc2ccc(F)cc2)Sc2ccccc21` (configuration not stated), the melting point was in the range of 158 to 160 °C.

Turning to `Nc1ncnc2c1ncn2C(c1ccccc1)(c1ccccc1)c1ccccc1`, the melting point is 260 to 262 °C.

In turn, `CC(C)(c1ccccc1)N1CC(O)=C(c2ccccc2)C1=O` gave a melting point of 206 to 208 °C.

With `CCC(=O)N[C@H]1CC[C@H](CCN2CCN(c3nccc4ccoc34)CC2)CC1`, the melting point was determined as 188 °C.

For the compound `COC(=O)c1ccc(OCC2CCCN(C)C2)cc1` (configuration not stated), the melting point lay in the range of 55 to 56 °C.

For `CCn1cc(C(=O)O)c(=O)c2cc(Cl)c(N3CCN(Cc4ccccc4)CC3)cc21`, the melting point is 228 °C.

In the case of `O=c1[nH]nc2n1C=Cc1ccccc1C2c1ccccc1` (configuration not stated), the melting point lay in the range of 258 to 260 °C.

`O=C1CCN(C(=O)C(F)(F)F)CC1` yielded a melting point of 68 °C.

`C[Si](C)(C)c1ccc2cc(C(=O)Nc3ccc(N4CCC4)nc3)n(Cc3cccc(F)c3)c2c1` gave a melting point of 208 to 210 °C.

Take `CCCCOCCOc1ccc(-c2ccc3c(c2)C=C(C(=O)Nc2ccc(SCc4nncn4CC(C)C)cc2)CCN3CCC)cc1`: the melting point is 130 to 132 °C.

`Cc1cc2c(cc1Cl)N(C(=O)CN1CCN(c3ncccn3)CC1)c1ccccc1N(C)S2(=O)=O` registered a melting point of 180 to 182 °C.

`CCCc1nc(C)n2c(=O)[nH]nc2c1Cc1ccc(-c2ccccc2C#N)cc1` came in with a melting point of 196 °C.

Regarding `O=C(O)c1ccn2c1C(c1cccnc1)CC2` (configuration not stated), the melting point was 210 °C.

For the compound `CCCCCCCCCCCCCCCCOC(=O)c1ccc(-c2nnn[nH]2)nc1`, the melting point fell in the range of 139 to 140 °C.

As for `O=C(c1ccccc1)c1cc2ccnc(N(Cc3ccccc3)Cc3ccccc3)c2[nH]1`, the melting point lay in the range of 122 to 124 °C.

Compound `CCCCCC(C)C(C)c1cc(O)c2c(c1)OC(C)(C)C1=C2CN(CC(=O)O)CC1` (configuration not stated) came in with a melting point of 192 to 195 °C.

Compound `O=C(OC(c1ccc(Cl)cc1Cl)C(Oc1ccc(Cl)cc1)n1cncn1)c1ccc(Cl)cc1Cl` (configuration not stated) showed a melting point of 132 to 135 °C.

Regarding `CCc1cn(C(CC)C(=O)N(C)C)nc1-c1ccccc1` (configuration not stated), the melting point fell in the range of 77.5 to 79 °C.

In the case of `Fc1ccc(F)c(-c2nc(-c3ccccn3)no2)c1`, the melting point lay in the range of 120 to 126 °C.

Turning to `O=C(Nc1nc(-c2ccccc2)nc2[nH]ccc12)[C@@H]1CCCN1`, the melting point was 236 to 238 °C.

`Cc1ccc(Cc2cnc(CCCOc3cccc(CN4CCCCC4)c3)[nH]c2=O)cn1` came in with a melting point of 137 to 138 °C.

`OC(CN1CCNCC1)C(O)(c1ccccc1)C1CCCC1` (configuration not stated) had a melting point of 50 °C.

For `O=C(O)c1cn(-c2cccnc2)cn1`, the melting point fell in the range of 265 to 266 °C.

In turn, `COc1ccc(C(=NO)c2ccccc2F)c(O)c1Cl` showed a melting point of 184 to 186 °C.

Turning to `Cn1cc(-c2ccnc(N[C@H]3CC[C@H](O)CC3)n2)c2ccccc21`, the melting point lay within 194 to 195 °C.

On to `CCCCCCc1ccc(OCCCCCCCCCCCCCCCC(=O)NCCO)cc1O`, for which the melting point amounted to 96.4 °C.

For the compound `CC(=S)NC[C@H]1CN(c2ccc(N3CCOCC3)c(F)c2)C(=O)O1`, the melting point was found to be 158 °C.

The compound `O=[N+]([O-])c1oc2cc3c(cc2c1-c1ccccc1)OCO3` yielded a melting point of 180 to 183 °C.

`COC(=O)C(I)C(O)c1ccccc1` (configuration not stated) displayed a melting point of 56 °C.

For `CC(C)[C@H](NC(=O)CC[C@H](C)CNC(=O)Cc1ccccc1)[C@@H](O)c1c(-c2ccccc2)c1=O`, the melting point lay within 152 to 154 °C.

Turning to `CC[C@@H](c1ccccc1)N(Cc1ccc(S(C)(=O)=O)cc1)S(=O)(=O)c1ccc(Cl)cc1`, the melting point is 61 to 63 °C.

`O=C(O)CCc1cccc(Oc2ccccc2Cl)c1O`: the melting point lay in the range of 90 to 92 °C.

`Cc1cc(-c2c3ccccc3c(C)c3sc4ccccc4c23)cc(C)c1O` yielded a melting point of 147 to 149 °C.

Consider `O=P(Cc1ccc(O)cc1)(c1ccccc1)c1ccccc1`, for which the melting point came to 125 °C.

Regarding `CC(C)(O)C#Cc1ncn2c1[C@@H]1CCCN1C(=O)c1c(Br)cccc1-2`, the melting point fell in the range of 227 to 228 °C.

The compound `N#Cc1cnc2ccsc2c1Nc1ccc(Cl)cc1Cl` gave a melting point of 198 to 200 °C.

As for `CC1(C)CCC(C)(C)c2cc(CCCO)c(/C=C/c3ccc(C(=O)O)cc3)cc21`, the melting point was found to be 213 °C.

On to `CN1CCN(c2nc3sc4c(NCCCn5ccnc5)ncnc4c3c3c2COC(C)(C)C3)CC1`, for which the melting point turned out to be 227 °C.

With `Nc1sc(-c2ccccc2)c(CN2CCCCC2)c1C(=O)c1ccc(Cl)cc1`, the melting point lay in the range of 185 to 187 °C.

The compound `NC(=O)Nc1nc2n(n1)CCc1ccccc1-2` yielded a melting point of 210 to 212 °C.

Turning to `Cc1cc(O)ccc1COCCn1ccnn1`, the melting point is 92 to 93 °C.

`CC(C)(C)CC(C)(C)c1ccc2c(c1)C(=O)NS2(=O)=O` registered a melting point of 213 to 215 °C.

Compound `CCOc1ccccc1N(C[C@H]1CCC[C@H](CN(C(=O)Nc2ccc(N(C)C)cc2)c2ccccc2OCC)C1)C(=O)Nc1ccc(N(C)C)cc1` (relative stereo) returned a melting point of 130 to 135 °C.

Compound `O=c1[nH]c(-c2ccccc2)nc(-c2ccncc2)c1Br` registered a melting point greater than 300 °C.

For `Cc1cnc(Oc2cccc(C(F)(F)F)c2)c(C(=O)O)c1`, the melting point fell in the range of 173 to 175 °C.

Consider `C#CCOc1cc(Oc2cccc(Cl)c2)ncn1`, for which the melting point is 71.6 °C.

As to `CN(C)c1ccc(Cn2nnc(-c3ccc(OC(=O)C(C)(C)C)c(N(C)C)c3)n2)cc1`, the melting point was in the range of 73 to 74 °C.

In turn, `CC1Cc2cccc(-c3ccccc3)c2C1=O` (configuration not stated) registered a melting point of 81.5 to 83 °C.

In turn, `COC(=O)c1nccnc1Cl` displayed a melting point of 30 °C.

Compound `Nc1cc(=O)n(CCC2=CCCCC2)c(=O)n1CCC1=CCCCC1` returned a melting point of 172 to 174 °C.

`C=C1NC(=O)N(Cc2ccccc2)C1=N` came in with a melting point of 139 to 141 °C.

`O=C(c1ccc(F)cc1)c1cccc(C(=O)c2ccc(F)cc2)c1` registered a melting point of 178 °C.

Take `Cc1cncn1CC#CCN1CCCC1=O`: the melting point lay in the range of 194 to 197 °C.

Take `CCOC(=O)c1ccc(NC(=O)c2cc(C)no2)cc1`: the melting point lay within 160 to 163 °C.

Regarding `O=C(O)c1nc(SCc2ccccc2)ccc1SCc1ccccc1`, the melting point was 129 °C.

Turning to `O=c1[nH]cc(-c2ccncn2)cc1Br`, the melting point is greater than 250 °C.

The compound `O=S(=O)(Cl)C=Cc1c(Cl)cccc1Cl` came in with a melting point of 88 to 90 °C.

On to `BrCCc1ccc2c(c1)CCC2`, for which the melting point was in the range of 57.8 to 58.1 °C.

The compound `Cc1nc(-c2ccc(F)cc2)c(-c2ccc(S(C)(=O)=O)cc2)o1` came in with a melting point of 158 to 159 °C.

The compound `COc1cc(N)c2nccc(C)c2c1OCCCCCCCCCc1ccccc1` displayed a melting point of 32 to 32.5 °C.

`CC(C)C1N(CC(N)=O)C(=O)CN1C(=O)CN` (configuration not stated) registered a melting point of 205 to 211 °C.

With `CCOC(=O)CCC(=O)c1cc(-c2ccccc2)nc2ccccc12`, the melting point was determined as 66 °C.

`CCCCCCC1CC(c2ccc(CCCC)cc2)C(=O)O1` (configuration not stated) yielded a melting point of 37.7 °C.

For `CCOC(=O)c1cn(-c2ccc(C(F)(F)F)cn2)nc1C`, the melting point lay within 88 to 89 °C.

On to `COC(=O)[C@H](O)[C@@H](NC(=O)OC(C)(C)C)c1ccc(N(C)C)cc1`, for which the melting point was determined as 120 °C.

Compound `COc1ncc(C(=O)Cc2c(Cl)cncc2Cl)cc1OC1CCCC1` registered a melting point of 118 to 119 °C.

In turn, `O=C(Nc1cccc(C(F)(F)F)c1)c1ccccc1[N+](=O)[O-]` had a melting point of 134 to 135 °C.

Regarding `COc1ccc(S(=O)(=O)N2CCc3cccc(-c4ccc(F)nc4)c32)cc1`, the melting point is 140 to 142 °C.

Compound `COc1cc(Cn2cnc3cccnc32)ccc1C(=O)N(C1CCCC1)C1CC(C)CC(C)C1` (configuration not stated) came in with a melting point of 80 to 82 °C.

For the compound `COCc1cn(-c2cccc(C(F)(F)F)c2)nc(-c2ccnn2-c2ccccc2)c1=O`, the melting point was 137 to 139 °C.

As for `c1ccc(Oc2ccc(N3CCNCC3)nn2)cc1`, the melting point lay within 96 to 97 °C.

The compound `O=c1c2ccccc2nnn1CCO` yielded a melting point of 114 °C.

Take `CCN(CC)C(=O)C(=O)c1c[nH]c2c1ccc1c3ccccc3[nH]c12`: the melting point was greater than 295 °C.

Compound `CCCc1nc(-n2cccc2)c(C(=O)OC)[nH]1` displayed a melting point of 135 to 138 °C.

`CC(=O)Oc1c(C2(OC(C)=O)C(=O)c3ccccc3C2=O)ccc(Cl)c1Cl` yielded a melting point of 129 to 136 °C.

`Cc1ccc2c(=O)cc(C(N)=O)oc2c1` displayed a melting point greater than 300 °C.
